# What was measured:
# [1] = target: T1, acyl-CoA synthetase 4 (Acsl4) (Rattus norvegicus, UniProt O35547); type: biochemical
# [2] = target: T1, acyl-CoA synthetase 4 (Acsl4); type: biochemical; remark: listed apart in the source
# T1 sequence (O35547 whole entry): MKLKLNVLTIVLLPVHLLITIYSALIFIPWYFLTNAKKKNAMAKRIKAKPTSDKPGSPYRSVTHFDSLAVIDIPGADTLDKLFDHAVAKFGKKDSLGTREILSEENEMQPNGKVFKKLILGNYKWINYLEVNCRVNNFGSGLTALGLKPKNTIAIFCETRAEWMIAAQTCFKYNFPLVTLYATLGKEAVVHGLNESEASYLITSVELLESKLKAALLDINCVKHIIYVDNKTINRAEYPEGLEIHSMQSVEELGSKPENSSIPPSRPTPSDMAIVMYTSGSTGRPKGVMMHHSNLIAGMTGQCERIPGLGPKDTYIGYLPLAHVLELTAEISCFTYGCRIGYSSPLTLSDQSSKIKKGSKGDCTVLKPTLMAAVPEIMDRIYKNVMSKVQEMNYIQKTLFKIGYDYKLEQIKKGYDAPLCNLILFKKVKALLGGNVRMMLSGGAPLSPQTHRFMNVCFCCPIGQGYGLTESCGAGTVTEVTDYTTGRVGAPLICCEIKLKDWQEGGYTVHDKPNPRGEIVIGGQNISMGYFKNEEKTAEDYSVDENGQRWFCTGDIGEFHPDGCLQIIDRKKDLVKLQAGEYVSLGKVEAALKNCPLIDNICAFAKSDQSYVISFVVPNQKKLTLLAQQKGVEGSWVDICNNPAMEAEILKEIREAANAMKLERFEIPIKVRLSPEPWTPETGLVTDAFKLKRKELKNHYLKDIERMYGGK
SMILES,Ki [1],Km [2]
"CCCC(C(=O)O)C(C)C (racemic) [PIA, 2-isopropylpentanoic acid]",11.4 ± 1.28 mM,
"CCCCC/C=C\C/C=C\C/C=C\C/C=C\CCCC(=O)O [AA, arachidonic acid]",,4.12 ± 0.56 µM
